{"source": "patent US20220202872A1", "about": "“METHOD FOR GENERATING A THREE-DIMENSIONAL NEUROMUSCULAR ORGANOID IN VITRO” (MAX-DELBRÜCK-CENTRUM FÜR MOLEKULARE MEDIZIN IN DER …, priority 2020, published 2022)", "key": {"NMOs [1]": {"system": "NMOs", "test": "Microelectrode array (MEA) recording of whole organoids", "type": "cell-based, human", "conditions": "for local (single electrode) firings / synchronous network activity (paired electrode spikes) / rhythmic, central pattern generator-like activity: NMDA and 5-HT applied together; for local (single electrode) firings / synchronous network activity (paired electrode spikes): day 50, FIG. 6G legend: 50 uM NMDA/40 uM 5-HT; for electrical activity triggered by NMDA/5-HT cocktail: cocktail of NMDA (10 uM) and 5-HT (40 uM), applied together; for suppression of electrical activity: APV 50 uM and CNQX 40 uM applied together, glutamate receptor inhibitors"}, "NMOs [2]": {"system": "NMOs", "test": "Contraction analysis of neuromuscular organoids before and after curare", "type": "cell-based, human", "conditions": "curare 10 uM; before vs after treatment", "experimental": "To investigate the functionality of NMJs, the contractile activity of NMOs was measured before and after treatment with Curare (10 uM), a blocker of AChRs.\nVideo segments of equal length were recorded using a bright-field microscope (DMI1, Leica) in 3 different regions of the same organoid using 20× zoom. To quantify muscle contractions, each movie was analyzed separately where each visible contraction was counted and then averaged for the whole organoid.\nTo analyze and map organoid muscular contraction, bright field time series images were automatically thresholded using ImageJ software to identify organoid border. A binary stack was created and contractile regions were visually identified. Regions of interest were defined and variations of organoid area (in pixel), used as a proxy of physical contraction, were plotted over the time series."}}, "note": "“Also recorded” adds a separate entry of the source."}
{"compound": "NCCc1c[nH]c2ccc(O)cc12", "note": "[5-HT, Serotonin]", "values": [{"measurement": "local (single electrode) firings", "setting": "NMOs [1]", "value": "increased single firings; also recorded: notable increase"}, {"measurement": "synchronous network activity (paired electrode spikes)", "setting": "NMOs [1]", "value": "increase in paired electrode spikes; also recorded: dramatic increase"}, {"measurement": "rhythmic, central pattern generator-like activity", "setting": "NMOs [1]; day 50 NMOs", "value": "central pattern generator-like activity; also recorded: became rhythmic; also recorded: produced rhythmic bursts of electrical activity"}, {"measurement": "electrical activity triggered by NMDA/5-HT cocktail", "setting": "NMOs [1]", "value": "instantaneously triggered strong activity"}]}
{"compound": "N[C@@H](CCCP(=O)(O)O)C(=O)O", "note": "[APV]", "values": [{"measurement": "suppression of electrical activity", "setting": "NMOs [1]", "value": "reversibly suppressed nearly all electrical activity"}]}
{"compound": "N#Cc1cc2[nH]c(=O)c(=O)[nH]c2cc1[N+](=O)[O-]", "note": "[CNQX]", "values": [{"measurement": "suppression of electrical activity", "setting": "NMOs [1]", "value": "reversibly suppressed nearly all electrical activity"}]}
{"compound": "CN[C@H](CC(=O)O)C(=O)O", "note": "[NMDA]", "values": [{"measurement": "local (single electrode) firings", "setting": "NMOs [1]", "value": "increased single firings; also recorded: notable increase"}, {"measurement": "synchronous network activity (paired electrode spikes)", "setting": "NMOs [1]", "value": "increase in paired electrode spikes; also recorded: dramatic increase"}, {"measurement": "rhythmic, central pattern generator-like activity", "setting": "NMOs [1]; day 50 NMOs", "value": "central pattern generator-like activity; also recorded: became rhythmic; also recorded: produced rhythmic bursts of electrical activity"}, {"measurement": "electrical activity triggered by NMDA/5-HT cocktail", "setting": "NMOs [1]", "value": "instantaneously triggered strong activity"}]}
{"compound": "CC(=O)OCC[N+](C)(C)C", "note": "[acetylcholine]", "values": [{"measurement": "increase of electrical activity", "setting": "NMOs [1]; acetylcholine 10 uM stimulation, day 50 NMOs", "value": "approximately 10 fold"}]}
{"compound": "N[C@@H](CCC(=O)O)C(=O)O", "note": "[glutamate]", "values": [{"measurement": "increase of spontaneous electrical activity", "setting": "NMOs [1]; acute glutamate 50 uM, day 30 and day 50 organoids", "value": "approximately 12 fold"}]}
{"compound": "NC1=N[C@H](O)[C@H]2[C@H]3O[C@]4(O)O[C@@H]([C@@H](O)[C@@]2(N1)[C@@H]4O)[C@]3(O)CO", "note": "[tetrodotoxin]", "values": [{"measurement": "suppression of NMDA/5-HT-triggered activity", "setting": "NMOs [1]", "value": "reversibly suppressed"}]}
{"compound": "curare", "values": [{"measurement": "block of acetylcholine-stimulated electrical activity", "setting": "NMOs [1]; curare 10 uM added after acetylcholine 10 uM, day 50 NMOs", "value": "rapidly and reversibly blocked"}, {"measurement": "contraction of the skeletal muscles (contractile activity of NMOs)", "setting": "NMOs [2]", "value": "blocked the contraction; also recorded: organoid relaxation"}]}
